Experimental data taken from patent publication US4681940A, “5-[3-[[2-quinolyl]methoxy]phenyl]-1,3-oxazoles” (American Home Products Corporation, priority 1985, dated 1987).
Counter-ions that a name gives are not always drawn.

Legend:
[1] = test system: LTD4 induced bronchoconstriction; experiment: In vivo inhibition of bronchospasm induced in guinea pigs by exogenously administered leukotrienes C4 and/or D4; set-up: species or system guinea pig (male Hartley); conditions: 10 minutes before induction of bronchospasm
Procedure: The assay of this Example measures the in vivo ability of the compounds of the invention to inhibit the bronchospasm induced in guinea pigs by the exogenously administered leukotrienes C4 and/or D4.
This assay is carried out as follows:
Male Hartley strain guinea pigs (350-600 g) are anesthetized with pentobarbital sodium (50 mg/kg, i.p.). The jugular vein is cannulated for injection of drugs and the carotid artery for monitoring blood pressure. The trachea is cannulated for artificial ventilation by a miniature Starling pump and for indirect measurement of respiratory volume changes as described infra. The animals are then pretreated with succinylcholine (2 mg/kg i.v.) and indomethacin (10 mg/kg i.v. in trizma 8.3 buffer, 9 minutes prior to leukotriene challenge). Submaximal bronchoconstrictor responses are established in control animals by varying the dose-levels of leukotriene. Intravenous dose-levels for LTC4 range from 0.4 to 0.6 μg/kg and for LTD4 the range is from 0.3 to 0.5 μg/kg. The aerosol bronchoprovocation dose for LTC4 is generated from 1.6 μM solution and for LTD4 from a 2.0 μM solution.
Test drugs (dissolved in a solvent such as propylene glycol, polyethylene glycol 400 or saline) are administered either intraduodenally, by aerosol or intragastrically at 2 or 10 minutes before induction of bronchospasm by administration of either LTC4 or LTD4 at the predetermined dose-levels. Aerosols of soluble drugs or leukotrienes are produced in-line for 10 seconds only by actuation of an ultrasonic nebulizer (Monaghan). Aerosolized drug dosage is expressed in terms of solution concentration and by a fixed aerosol exposure time (approximately 10 seconds). Control animals receive solvent (2 ml/kg i.d. or appropriate aerosol) in place of drug.
Respiratory volume changes are determined by a calibrated piston whose travel is recorded, via a linear transducer, on a Beckman Dynograph recorder. Maximal bronchoconstrictor volume is determined by clamping off the trachea at the end of the experiment. Overflow volumes at 1, 3 and 5 minutes are obtained from the recorded charts.
Area under the volume overflow curve (AUC) is estimated, using the overflow values at 1, 3 and 5 minutes, and expressed as a percentage of the maximal overflow AUC (equation 1): [formula] Drug effects are reported as percent inhibition of % max AUC values obtained from appropriate control animals (equation 2): [formula]
Student's t-test for unpaired data is used to determine statistical significance (p<0.05). IC50 values can also be determined by inverse prediction from linear regression lines through points between 10 and 90% inhibition.

[2] = test system: ovalbumin induced bronchospasm; experiment: In vivo inhibition of ovalbumin-induced bronchospasm mediated by endogenous mediators in sensitized guinea pigs; set-up: species or system guinea pig (male Hartley); conditions: 50 mg/kg intraduodenal, 10 minutes before ovalbumin challenge
Procedure: The assay of this Example measures the in vivo ability of the compounds of the invention to inhibit the bronchospasm induced in guinea pigs by endogenous mediators of the bronchoconstriction.
(§1) The assay is carried out as follows:
Male Hartley strain guinea pigs weighing 250-350 g are sensitized to chicken ovalbumin (OA) (10 mg i.p.) on days 1 and 3 and used starting on day 26. The animals are anesthetized with pentobarbital sodium (50 mg/kg, i.p.), bilateral vagotomy is performed, and the jugular vein is cannulated for injection of drugs and the carotid artery for monitoring blood pressure. The trachea is cannulated for artificial ventilation by miniature Starling pump and for indirect measurement of respiratory volume changes as described, infra. Succinylcholine (2 mg/kg, i.v.) is administered to arrest spontaneous respiration. […]
Respiratory volume changes are determined by a calibrated piston whose travel is recorded, via a linear transducer, on a Beckman Dynograph recorder. Maximal bronchoconstrictor volume is determined by clamping off the trachea at the end of the experiment. Overflow volumes at minutes 1, 3 and 5 are obtained from the recorded charts.
Area under the volume overflow curve (AUC) is estimated, using the overflow values at 1, 3 and 5 minutes, and expressed as a percentage of the maximal overflow AUC (equation 1): [formula] […]

[3] = test system: synthesis of 5-HETE by rat glycogen elicited polymorphonuclear leukocytes; experiment: Inhibition of 5-HETE synthesis by rat glycogen-elicited polymorphonuclear leukocytes; type: cell-based, rat (female Wistar); conditions: rat PMN
Procedure: The assay of this Example measures the ability of the compounds of the invention to inhibit the synthesis of 5 -HETE by rat glycogen elicited polymorphonuclear leukocytes.
as §1
Peritoneal PMN are obtained from female Wistar rats (150-250 g) that received an i.p. injection of 6% glycogen (10 ml). After 24 hours, rats are killed by CO2 asphyxiation and peritoneal cells are harvested by peritoneal lavage using Ca^++ and Mg^++ free Hanks' balanced salt solution (HBSS). The peritoneal exudate is centrifuged at 400 g for 10 minutes. After centrifugation, the lavaged fluid is removed and the cell pellet is resuspended in HBSS containing Ca^++ and Mg^++ and 10 mM L-cysteine at a concentration of 2×10^7 cells/ml. To 1 ml portions of cell suspension, test drugs or vehicle are added and incubated at 37° C. for 10 minutes. Following this preincubation, the calcium ionophore (10 μM), A23187, is added together with 0.5 μCi [^14 C] arachidonic acid and further incubated for 10 minutes. The reaction is stopped by the addition of ice cold water (3 ml) and acidifying to pH 3.5. Lipoxygenase products are then extracted twice into diethyl ether. The pooled ether extracts are evaporated to dryness under nitrogen and the residue is redissolved in a small volume of methanol and spotted on aluminum backed pre-coated thin layer chromatographic plates. The samples are then co-chromatographed with authentic reference 5-HETE in the solvent system--hexane:ether:acetic acid (50:50:3). After chromatography, the areas associated with 5-HETE standard are identified by autoradiography, cut out and quantitated by liquid scintillation.
The compounds of this invention are tested in this assay at a level of 50 μm, unless otherwise noted. The results are summarized in Table 1, where those compounds having an inhibition of >50% are designated by a "+". Some results are expressed as an IC50 value.

CN1CC(c2cccc(OCc3ccc4ccccc4n3)c2)OC1=O (stereo not drawn) [1 (as HCL salt), 5-[3-[(2-Quinolinyl)methoxy]phenyl]-3-methyl-2-oxazolidone]
% Inhibition ([1]; 50 mg/kg, intraduodenally): 65% | % Inhibition ([1]; 50 mg/kg, intragastrically): 46%

CN1CC(c2cccc(OCc3ccc4ccccc4n3)c2)OC1=O (stereo not drawn) [1 (as free base), 5-[3-[(2-Quinolinyl)methoxy]phenyl]-3-methyl-2-oxazolidone]
% Inhibition of Max AUC [2]: 69%

CN1C[C@@H](c2cccc(OCc3ccc4ccccc4n3)c2)OC1=O [Example 1 (as free base, R-enantiomer), 5-[3-[(2-Quinolinyl)methoxy]phenyl]-3-methyl-2-oxazolidone]
% Inhibition ([1]; 50 mg/kg, intraduodenally): 91% | % Inhibition ([1]; 50 mg/kg, intragastrically): 65% | ED50 ([1]; Cavia porcellus, 10 min, printed on the intraduodenal line, read-out: IC50 (the source's name)): 8.6 mg/kg

CN1C[C@H](c2cccc(OCc3ccc4ccccc4n3)c2)OC1=O [Example 1 (as free base, S-enantiomer), 5-[3-[(2-Quinolinyl)methoxy]phenyl]-3-methyl-2-oxazolidone]
% Inhibition ([1]; 50 mg/kg, intraduodenally): 99%

CN1C[C@@H](c2cccc(OCc3ccc4ccccc4n3)c2)OC1=O [Example 1, 5-[3-[(2-Quinolinyl)methoxy]phenyl]-3-methyl-2-oxazolidone]
IC50 ([3]; Leukocyte): 19.6 µM | >50% Inhibitory at 50 μm [3]: + (inhibition of >50%)

CN1CC(c2cccc(OCc3ccc4ccccc4n3)c2)OC1=S (stereo not drawn) [Example 2, 5-[3-[(2-Quinolinyl)methoxy]phenyl]-3-methyl-2-thiaoxazolidone]
>50% Inhibitory at 50 μm [3]: + (inhibition of >50%)

CN1CC(c2cccc(OCc3nc4ccccc4n3C)c2)OC1=O (stereo not drawn) [Example 4, 5-[3-[(1-Methyl-2-benzimidazoyl)]methoxy]phenyl-3-methyl-2-oxazolidone]
% Inhibition ([1]; 50 mg/kg, intraduodenally): 65%

CCC1=NCC(c2cccc(OCc3ccc4ccccc4n3)c2)O1 (stereo not drawn) [Example 5, 2-Ethyl-4,5-dihydro-5-[3-[(2-quinolinyl)methoxy]phenyl]-1,3-oxazole]
% Inhibition ([1]; 25 mg/kg, intraduodenally): 77%

c1ccc(C2=NCC(c3cccc(OCc4ccc5ccccc5n4)c3)O2)nc1 (stereo not drawn) [Example 6, 4,5-Dihydro-5-[3-[(2-quinolinyl)methoxy]phenyl]-2-(2-pyridyl)-1,3-oxazole]
% Inhibition ([1]; 25 mg/kg, intraduodenally): 96%

c1cc(OCc2ccc3ccccc3n2)cc(C2CN=C(c3cccs3)O2)c1 (stereo not drawn) [Example 7, 4,5-Dihydro-5-[3-[(2-quinolinyl)methoxy]phenyl]-2-(2-thienyl)-1,3-oxazole]
% Inhibition ([1]; 50 mg/kg, intraduodenally): 41%

CCOC(=O)CC1=NCC(c2cccc(OCc3ccc4ccccc4n3)c2)O1 (stereo not drawn) [Example 8, 2-Ethoxycarbonylmethyl-4,5-dihydro-5-[3-[(2-quinolinyl)methoxy]phenyl]-1,3-oxazole]
% Inhibition ([1]; 25 mg/kg, intraduodenally): 72%
